Data as given in ChEMBL document CHEMBL2203069, “Synthesis and structure-activity relationships of a novel series of pyrimidines as potent inhibitors of TBK1/IKKε kinases” (Bioorg Med Chem Lett, 2012).

Tests used:
[1] = biological target: T1, Serine/threonine-protein kinase TBK1 (Homo sapiens, UniProt Q9UHD2); test: Inhibition of TBK1 by radiometry
T1 sequence (Q9UHD2 whole entry): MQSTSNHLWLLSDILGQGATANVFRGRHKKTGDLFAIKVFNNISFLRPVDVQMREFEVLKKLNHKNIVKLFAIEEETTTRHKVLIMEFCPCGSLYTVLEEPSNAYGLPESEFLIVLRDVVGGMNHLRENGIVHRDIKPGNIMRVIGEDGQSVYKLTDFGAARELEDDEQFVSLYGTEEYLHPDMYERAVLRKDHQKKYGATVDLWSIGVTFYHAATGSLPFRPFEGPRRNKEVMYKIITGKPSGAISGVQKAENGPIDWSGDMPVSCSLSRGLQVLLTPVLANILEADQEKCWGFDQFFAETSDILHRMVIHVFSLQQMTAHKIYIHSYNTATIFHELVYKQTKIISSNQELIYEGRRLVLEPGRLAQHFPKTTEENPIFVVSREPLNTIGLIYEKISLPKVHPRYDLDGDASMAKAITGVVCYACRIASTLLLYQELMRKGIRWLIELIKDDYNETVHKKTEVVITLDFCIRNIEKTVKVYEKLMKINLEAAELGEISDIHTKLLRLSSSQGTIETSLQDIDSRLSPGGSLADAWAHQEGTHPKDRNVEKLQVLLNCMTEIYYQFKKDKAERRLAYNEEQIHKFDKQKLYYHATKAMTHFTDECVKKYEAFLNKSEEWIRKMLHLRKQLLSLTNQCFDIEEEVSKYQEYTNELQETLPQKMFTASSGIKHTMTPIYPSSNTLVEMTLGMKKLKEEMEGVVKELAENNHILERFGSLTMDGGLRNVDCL

[2] = Permeability from apical to basolateral side of human Caco2 cells; assay type: ADME, cell-based; conditions: Caco-2, read-out: permeability
[3] = Metabolic stability in human liver microsomes assessed as compound turnover after 40 mins; assay type: ADME, Microsome; conditions: read-out: Drug metabolism
[4] = biological target: T2, Serine/threonine-protein kinase TBK1 (Mus musculus, UniProt Q9WUN2); test: Inhibition of TBK1-mediated RANTES release in LPS-stimulated mouse RAW264.7 cells compound incubated for 30 mins prior LPS challenge measured after 6 hrs by ELISA; assay type: cell-based
T2 sequence (Q9WUN2 whole entry): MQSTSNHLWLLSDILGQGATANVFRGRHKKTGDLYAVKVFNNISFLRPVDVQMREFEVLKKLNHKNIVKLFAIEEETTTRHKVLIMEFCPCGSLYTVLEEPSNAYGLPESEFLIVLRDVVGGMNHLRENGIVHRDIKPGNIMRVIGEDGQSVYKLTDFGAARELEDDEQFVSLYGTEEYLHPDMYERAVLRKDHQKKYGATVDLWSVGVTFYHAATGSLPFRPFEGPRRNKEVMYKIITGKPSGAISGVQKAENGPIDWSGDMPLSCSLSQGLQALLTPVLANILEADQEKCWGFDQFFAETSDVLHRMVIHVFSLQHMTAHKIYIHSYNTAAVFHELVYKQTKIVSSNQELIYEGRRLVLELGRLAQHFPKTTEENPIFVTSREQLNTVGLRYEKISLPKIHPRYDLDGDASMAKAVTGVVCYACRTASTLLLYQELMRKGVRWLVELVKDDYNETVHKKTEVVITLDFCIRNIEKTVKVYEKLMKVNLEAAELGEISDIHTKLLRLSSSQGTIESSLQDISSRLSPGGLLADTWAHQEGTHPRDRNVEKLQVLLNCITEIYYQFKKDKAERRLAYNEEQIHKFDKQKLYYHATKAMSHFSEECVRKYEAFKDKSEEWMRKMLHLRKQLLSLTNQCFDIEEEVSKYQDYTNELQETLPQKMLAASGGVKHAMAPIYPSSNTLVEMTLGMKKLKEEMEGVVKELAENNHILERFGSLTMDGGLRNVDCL

[5] = Metabolic stability in mouse liver microsomes assessed as compound turnover after 30 mins; assay type: ADME, Microsome; conditions: read-out: Drug metabolism
[6] = Efflux ratio of permeability from basolateral to apical side to apical to basolateral side in human Caco2 cells; assay type: ADME, cell-based; conditions: Caco-2
[7] = biological target: T3, 3-phosphoinositide-dependent protein kinase 1 (Homo sapiens, UniProt O15530); test: Inhibition of PDK1 by radiometry
T3 sequence (O15530 whole entry): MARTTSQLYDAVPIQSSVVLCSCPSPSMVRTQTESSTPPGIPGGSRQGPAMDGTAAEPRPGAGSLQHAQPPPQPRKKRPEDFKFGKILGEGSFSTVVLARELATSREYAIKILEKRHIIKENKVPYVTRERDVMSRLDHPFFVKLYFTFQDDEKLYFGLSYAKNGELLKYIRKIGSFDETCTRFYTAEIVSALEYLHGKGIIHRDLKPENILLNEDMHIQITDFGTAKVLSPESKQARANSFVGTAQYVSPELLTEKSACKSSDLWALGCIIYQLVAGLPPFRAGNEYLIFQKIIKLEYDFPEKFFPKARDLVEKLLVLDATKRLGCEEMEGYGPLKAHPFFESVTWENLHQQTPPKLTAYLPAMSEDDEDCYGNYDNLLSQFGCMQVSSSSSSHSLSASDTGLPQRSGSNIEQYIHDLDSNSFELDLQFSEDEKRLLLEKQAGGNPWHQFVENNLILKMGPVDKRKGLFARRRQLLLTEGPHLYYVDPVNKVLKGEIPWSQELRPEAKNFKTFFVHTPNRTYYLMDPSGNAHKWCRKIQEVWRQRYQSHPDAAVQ

Row | Compound | IC50 [1] [nM] | metabolised at 40 min [3] [%] | IC50 ([4]; read-out: IC50) [nM] | metabolised at 0.5 h [5] [%] | other results
1 | O=C(NCCCNc1nc(Nc2cccc(F)c2)ncc1Br)c1cccc(N2CCOCC2)c1 | 3600 |  |  |  | 
2 | CC(C)c1cnc(Nc2cccc(F)c2)nc1NCCCNC(=O)C1CCC1 | > 1000 |  |  |  | 
3 | O=C(NCCCNc1nc(Nc2cccc(F)c2)ncc1Br)c1ccc(C(F)(F)F)cc1 | 450 |  |  |  | 
4 | CCc1cnc(Nc2cccc(F)c2)nc1NCCCNC(=O)C1CCC1 | 63 |  |  |  | 
5 | CN1CCC(C(=O)NCCCNc2nc(Nc3cccc(F)c3)ncc2Br)CC1 | 4300 |  |  |  | 
6 | O=C(NCCCNc1nc(Nc2cnn(C3CC3)c2)ncc1C1CC1)C1CCC1 | 10 | 32 | 130 | 24 | 
7 | O=C(NCCCNc1nc(NCc2ccc(F)cc2)ncc1C1CC1)c1cccs1 | > 10000 |  |  |  | 
8 | O=C(NCCCNc1nc(Nc2cccc(N3CCOCC3)c2)ncc1C1CC1)C1CCC1 | 28 |  | 580 |  | 
9 | O=C(NCCCNc1nc(Nc2cccc(F)c2)ncc1CC1CC1)C1CCC1 | > 1000 |  |  |  | 
10 | O=C(NCCCNc1nc(Nc2cccnc2)ncc1C1CC1)C1CCC1 | 13 |  | > 1000 |  | 
11 | O=C(NCCCNc1nc(Nc2ccccc2F)ncc1C1CC1)c1cccs1 | 820 |  |  |  | 
12 | O=C(NCCCNc1nc(NC2CCCCC2)ncc1C1CC1)c1cccs1 | > 10000 |  |  |  | 
13 | O=C(NCCCNc1nc(Nc2cccc(F)c2)ncc1Br)C1CCC1 |  |  |  |  | IC50 [7]: 68 nM
14 | O=C(NCCCNc1nc(Nc2cccc(F)c2)ncc1Br)c1cnccn1 | 22 |  |  |  | 
15 | O=C(CCc1ccccc1)NCCCNc1nc(Nc2cccc(F)c2)ncc1Br | 560 |  |  |  | 
16 | Cn1ncc2cc(Nc3ncc(C4CC4)c(NCCCNC(=O)C4CCC4)n3)ccc21 | 16 | 42 | 380 | 40 | 
17 | O=C(NCCCNc1nc(Nc2ccc(N3CCOCC3)nc2)ncc1C1CC1)C1CCC1 | 15 | 15 | 490 | 92 | 
18 | O=C(NCCCNc1nc(Nc2cccc(F)c2)ncc1C1CC1)c1cccs1 | 110 |  |  |  | 
19 | O=C(NCCCNc1nc(Nc2cccc(-c3cnco3)c2)ncc1C1CC1)C1CCC1 | 11 | 26 | 560 | 34 | 
20 | CC(=O)N1CCC(C(=O)NCCCNc2nc(Nc3cccc(F)c3)ncc2Br)CC1 | 430 |  |  |  | 
21 | COCCC(=O)NCCCNc1nc(Nc2cccc(F)c2)ncc1Br | 60 |  |  |  | 
22 | O=C(NCCCNc1nc(Nc2cnn(CCN3CCOCC3)c2)ncc1C1CC1)C1CCC1 | 9 | 46 | 9000 | 68 | 
23 | O=C(NCCCNc1nc(Nc2cncnc2)ncc1C1CC1)C1CCC1 | 3200 |  |  |  | 
24 | Cn1ccc(Nc2ncc(C3CC3)c(NCCCNC(=O)C3CCC3)n2)n1 | > 1000 |  |  |  | 

Second part, led by results:

Row | IC50 [1] [nM] | metabolised at 40 min [3] [%] | IC50 ([4]; read-out: IC50) [nM] | metabolised at 0.5 h [5] [%] | Compound | other results
25 | 7 | 24 | 3000 | 42 | CC(C)N1CCC(n2cc(Nc3ncc(C4CC4)c(NCCCNC(=O)C4CCC4)n3)cn2)CC1 | Papp A→B [2]: 1.4 ×10⁻⁶ cm/s; efflux ratio [6]: 16
26 | 2 | 25 | 280 | 33 | O=C(NCCCNc1nc(Nc2cnn(C3CCOCC3)c2)ncc1C1CC1)C1CCC1 | 
27 | 2 | 61 | 220 | 61 | O=C(NCCCNc1nc(Nc2cnn(C3CCC3)c2)ncc1C1CC1)C1CCC1 | 
28 | 4 | 61 | 81 | 41 | CC(C)n1cc(Nc2ncc(C3CC3)c(NCCCNC(=O)C3CCC3)n2)cn1 | 
29 | 3 | 63 | 88 |  | O=C(NCCCNc1nc(Nc2cccc(Cn3cncn3)c2)ncc1C1CC1)C1CCC1 | 
30 | 6 |  | 550 |  | CN(C)Cc1ccc(Nc2ncc(C3CC3)c(NCCCNC(=O)C3CCC3)n2)cc1 | Papp A→B [2]: 1 ×10⁻⁶ cm/s; efflux ratio [6]: 56
31 | 9 |  | 1200 |  | O=C(NCCCNc1nc(Nc2ccc(CN3CCCCC3)nc2)ncc1C1CC1)C1CCC1 | Papp A→B [2]: 0.1 ×10⁻⁶ cm/s; efflux ratio [6]: 780
32 | 8 | 80 | 1300 | 74 | O=C(NCCCNc1nc(Nc2cccc(F)c2)ncc1C1CC1)C1CCC1 | IC50 [7]: 580 nM
33 | 3 | 23 | 150 | 35 | O=C(NCCCNc1nc(Nc2ccc(-n3cncn3)cc2)ncc1C1CC1)C1CCC1 | Papp A→B [2]: 10 ×10⁻⁶ cm/s; efflux ratio [6]: 3
34 | 8 | 23 | 660 | 30 | CN1CCC(c2ccc(Nc3ncc(C4CC4)c(NCCCNC(=O)C4CCC4)n3)cc2)CC1 | 
35 | 7 | 86 | 90 | 41 | Cc1nn(C)c2cc(Nc3ncc(C4CC4)c(NCCCNC(=O)C4CCC4)n3)ccc12 | 
36 | 2 |  |  |  | CN1CCN(C(=O)c2ccc(Nc3ncc(C4CC4)c(NCCCNC(=O)C4CCC4)n3)cc2)CC1 | IC50 ([4]; raw264.7): Not Active
37 | 7 | 91 | 570 | 86 | O=C(NCCCNc1nc(Nc2ccc3c(c2)CN(C2CC2)CC3)ncc1C1CC1)C1CCC1 | 
38 | 7 | 37 | 140 | 54 | CCn1cc(Nc2ncc(C3CC3)c(NCCCNC(=O)C3CCC3)n2)cn1 | 
39 | 6 |  |  |  | O=C(NCCCNc1nc(Nc2cccc(NC(=O)N3CCCC3)c2)ncc1Br)c1cccs1 | 
40 | 8 |  |  |  | O=C(NCCCNc1nc(Nc2cccc(F)c2)ncc1Br)C1CCCC1 | IC50 [7]: 220 nM
41 | 4 | 67 | 93 | 59 | O=C(NCCCNc1nc(Nc2cnn(C3CCCC3)c2)ncc1C1CC1)C1CCC1 | 
42 | 9 |  |  |  | O=C(NCCCNc1nc(Nc2cccc(F)c2)ncc1Br)c1cccs1 | IC50 [7]: 130 nM
